Reference: patent EP0022117A2, “Metoclopramid resinate and medicament containing it” (Trenker, Ady, priority 1979, dated 1981)

Legend:
[1] = plasma half-life in the dog; type: in vivo; conditions: chez le chien, read-out: demi-vie plasmatique
[2] = plasma half-life in the rat; type: in vivo; conditions: chez le rat, read-out: demi-vie plasmatique

In the case of `CCN(CC)CCNC(=O)c1cc(Cl)c(N)cc1OC` [Metoclopramide], the half-life [1] is reported as 1 to 1.5 h and the half-life [2] is reported as 1 to 1.5 h.
